# Laboratory results reported in ChEMBL document CHEMBL3885881, “DrugMatrix”.
# Organism: Rattus norvegicus
# Assay: DrugMatrix - Regimen: Daily Repeat
# Assay type: toxicity, organism-based, Sprague-Dawley
# Design: regimen Daily Repeat, gender Male, age 6-8 weeks
# Conditions: in vivo, po, route oral GAVAGE, vehicle .5 % CMC; for ABSOLUTE BASOPHIL / ABSOLUTE EOSINOPHIL / ABSOLUTE LYMPHOCYTE / ABSOLUTE MONOCYTE / ABSOLUTE SEGMENTED NEUTROPHIL / BASOPHIL / EOSINOPHIL / ERYTHROCYTE COUNT / HEMATOCRIT / HEMOGLOBIN / LEUKOCYTE COUNT / LYMPHOCYTE / MEAN CORPUSCULAR HEMOGLOBIN / MEAN CORPUSCULAR HEMOGLOBIN CONCENTRATION / MEAN CORPUSCULAR VOLUME / MONOCYTE / NEUTROPHIL / NUCLEATED RED BLOOD CELLS / PLATELET COUNT: tissue Blood; for ALANINE AMINOTRANSFERASE / ALBUMIN / ALKALINE PHOSPHATASE / ASPARTATE AMINOTRANSFERASE / BLOOD UREA NITROGEN / CARBON DIOXIDE / CHLORIDE / CHOLESTEROL / CREATINE PHOSPHOKINASE / CREATININE / GLUCOSE / LACTATE DEHYDROGENASE / LIPASE / PHOSPHORUS / POTASSIUM / SODIUM / TOTAL BILIRUBIN / TOTAL PROTEIN / URIC ACID: tissue Plasma
# [1] = 20 mg/kg, 120 h, dose level Low, time 5 day
# [2] = 1500 mg/kg, 72 h, dose level High, time 3 day
# [3] = 1500 mg/kg, 120 h, dose level High, time 5 day
structure (smiles),measurement,setting,value
CC(C)(C)NC(=O)[C@@H]1C[C@@H]2CCCC[C@@H]2CN1C[C@@H](O)[C@H](Cc1ccccc1)NC(=O)[C@H](CC(N)=O)NC(=O)c1ccc2ccccc2n1,ABSOLUTE BASOPHIL,[1],0 CELLS/uL
same,ABSOLUTE EOSINOPHIL,[1],247 CELLS/uL
same,ABSOLUTE LYMPHOCYTE,[1],11820.33 CELLS/uL
same,ABSOLUTE MONOCYTE,[1],0 CELLS/uL
same,ABSOLUTE SEGMENTED NEUTROPHIL,[1],1032.67 CELLS/uL
same,BASOPHIL,[1],0%
same,EOSINOPHIL,[1],2%
same,ERYTHROCYTE COUNT,[1],5.22 x10E6/uL
same,HEMATOCRIT,[1],32.83%
same,HEMOGLOBIN,[1],12.53 G/DL
same,LEUKOCYTE COUNT,[1],13.1 x10E3/uL
same,LYMPHOCYTE,[1],90.33%
same,MEAN CORPUSCULAR HEMOGLOBIN,[1],24.03 pg
same,MEAN CORPUSCULAR HEMOGLOBIN CONCENTRATION,[1],38.2 G/DL
same,MEAN CORPUSCULAR VOLUME,[1],63.03 fL
same,MONOCYTE,[1],0%
same,NEUTROPHIL,[1],7.67%
same,NUCLEATED RED BLOOD CELLS,[1],0 /100WBC
same,PLATELET COUNT,[1],1193.67 x10E3/uL
same,ALANINE AMINOTRANSFERASE,[1],53.33 u/L
same,ALBUMIN,[1],4.33 G/DL
same,ALKALINE PHOSPHATASE,[1],341.67 u/L
same,ASPARTATE AMINOTRANSFERASE,[1],80.67 u/L
same,BLOOD UREA NITROGEN,[1],18 mg/dL
same,CARBON DIOXIDE,[1],25.33 mmol/L
same,CHLORIDE,[1],102.67 MEQ/L
same,CHOLESTEROL,[1],79.33 mg/dL
same,CREATINE PHOSPHOKINASE,[1],166.33 u/L
same,CREATININE,[1],0.19 mg/dL
same,GLUCOSE,[1],146.67 mg/dL
same,LACTATE DEHYDROGENASE,[1],98.33 u/L
same,LIPASE,[1],8.67 u/L
same,PHOSPHORUS,[1],11.57 mg/dL
same,POTASSIUM,[1],5.98 MEQ/L
same,SODIUM,[1],144.17 MEQ/L
same,TOTAL BILIRUBIN,[1],0.17 mg/dL
same,TOTAL PROTEIN,[1],6.37 G/DL
same,URIC ACID,[1],1.27 mg/dL
same,ABSOLUTE BASOPHIL,[2],0 CELLS/uL
same,ABSOLUTE EOSINOPHIL,[2],137.33 CELLS/uL
same,ABSOLUTE LYMPHOCYTE,[2],12869.33 CELLS/uL
same,ABSOLUTE MONOCYTE,[2],0 CELLS/uL
same,ABSOLUTE SEGMENTED NEUTROPHIL,[2],1126.67 CELLS/uL
same,BASOPHIL,[2],0%
same,EOSINOPHIL,[2],1%
same,ERYTHROCYTE COUNT,[2],6.18 x10E6/uL
same,HEMATOCRIT,[2],38.67%
same,HEMOGLOBIN,[2],14.47 G/DL
same,LEUKOCYTE COUNT,[2],14.13 x10E3/uL
same,LYMPHOCYTE,[2],91%
same,MEAN CORPUSCULAR HEMOGLOBIN,[2],23.47 pg
same,MEAN CORPUSCULAR HEMOGLOBIN CONCENTRATION,[2],37.4 G/DL
same,MEAN CORPUSCULAR VOLUME,[2],62.63 fL
same,MONOCYTE,[2],0%
same,NEUTROPHIL,[2],8%
same,NUCLEATED RED BLOOD CELLS,[2],0 /100WBC
same,PLATELET COUNT,[2],1247.33 x10E3/uL
same,ALANINE AMINOTRANSFERASE,[2],48.67 u/L
same,ALBUMIN,[2],4.4 G/DL
same,ALKALINE PHOSPHATASE,[2],408 u/L
same,ASPARTATE AMINOTRANSFERASE,[2],76.67 u/L
same,BLOOD UREA NITROGEN,[2],14 mg/dL
same,CARBON DIOXIDE,[2],26.67 mmol/L
same,CHLORIDE,[2],99.67 MEQ/L
same,CHOLESTEROL,[2],80 mg/dL
same,CREATINE PHOSPHOKINASE,[2],218.33 u/L
same,CREATININE,[2],0.15 mg/dL
same,GLUCOSE,[2],162 mg/dL
same,LACTATE DEHYDROGENASE,[2],94.33 u/L
same,LIPASE,[2],8.67 u/L
same,PHOSPHORUS,[2],12.5 mg/dL
same,POTASSIUM,[2],6.95 MEQ/L
same,SODIUM,[2],144.6 MEQ/L
same,TOTAL BILIRUBIN,[2],0.17 mg/dL
same,TOTAL PROTEIN,[2],6.17 G/DL
same,URIC ACID,[2],1.83 mg/dL
same,ABSOLUTE BASOPHIL,[3],0 CELLS/uL
same,ABSOLUTE EOSINOPHIL,[3],190 CELLS/uL
same,ABSOLUTE LYMPHOCYTE,[3],12822 CELLS/uL
same,ABSOLUTE MONOCYTE,[3],0 CELLS/uL
same,ABSOLUTE SEGMENTED NEUTROPHIL,[3],1388 CELLS/uL
same,BASOPHIL,[3],0%
same,EOSINOPHIL,[3],1.33%
same,ERYTHROCYTE COUNT,[3],5.33 x10E6/uL
same,HEMATOCRIT,[3],33.83%
same,HEMOGLOBIN,[3],13.1 G/DL
same,LEUKOCYTE COUNT,[3],14.4 x10E3/uL
same,LYMPHOCYTE,[3],89.33%
same,MEAN CORPUSCULAR HEMOGLOBIN,[3],24.63 pg
same,MEAN CORPUSCULAR HEMOGLOBIN CONCENTRATION,[3],38.73 G/DL
same,MEAN CORPUSCULAR VOLUME,[3],63.53 fL
same,MONOCYTE,[3],0%
same,NEUTROPHIL,[3],9.33%
same,NUCLEATED RED BLOOD CELLS,[3],0 /100WBC
same,PLATELET COUNT,[3],1411.67 x10E3/uL
same,ALANINE AMINOTRANSFERASE,[3],48 u/L
same,ALBUMIN,[3],4.4 G/DL
same,ALKALINE PHOSPHATASE,[3],396.33 u/L
same,ASPARTATE AMINOTRANSFERASE,[3],69 u/L
same,BLOOD UREA NITROGEN,[3],15.67 mg/dL
same,CARBON DIOXIDE,[3],25.67 mmol/L
same,CHLORIDE,[3],103.33 MEQ/L
same,CHOLESTEROL,[3],71.67 mg/dL
same,CREATINE PHOSPHOKINASE,[3],233.33 u/L
same,CREATININE,[3],0.17 mg/dL
same,GLUCOSE,[3],169 mg/dL
same,LACTATE DEHYDROGENASE,[3],123.33 u/L
same,LIPASE,[3],8.33 u/L
same,PHOSPHORUS,[3],12.8 mg/dL
same,POTASSIUM,[3],6.57 MEQ/L
same,SODIUM,[3],145.83 MEQ/L
same,TOTAL BILIRUBIN,[3],0.23 mg/dL
same,TOTAL PROTEIN,[3],6.23 G/DL
same,URIC ACID,[3],1.7 mg/dL
